Experimental data taken from PubChem BioAssay (NCI).
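Compound exposure: 48 hours, 5 concentrations, 96-well plates. GI50: concentration for 50% inhibition of growth. TGI denotes the concentration required for complete inhibition of growth.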

Key:
Assay in all cases: growth of human tumour cells (NCI), 48 h
UACC-62 melanoma = test system: UACC-62 melanoma
786-0 renal = test system: 786-0 renal
NCI-H522 lung = test system: NCI-H522 lung
DU-145 prostate = test system: DU-145 prostate
MDA-MB-435 = test system: MDA-MB-435
CCRF-CEM leukemia = test system: CCRF-CEM leukemia
K-562 leukemia = test system: K-562 leukemia
UACC-257 melanoma = test system: UACC-257 melanoma
MDA-MB-231 breast = test system: MDA-MB-231 breast
RPMI-8226 leukemia = test system: RPMI-8226 leukemia
KM12 colon = test system: KM12 colon
HOP-92 NSCLC = test system: HOP-92 NSCLC
SF-539 CNS = test system: SF-539 CNS
M14 melanoma = test system: M14 melanoma
SNB-19 CNS = test system: SNB-19 CNS
A498 renal = test system: A498 renal
T-47D breast = test system: T-47D breast
NCI/ADR-RES ovarian = test system: NCI/ADR-RES ovarian
SNB-75 CNS = test system: SNB-75 CNS
SR leukemia = test system: SR leukemia
SK-MEL-28 melanoma = test system: SK-MEL-28 melanoma
RXF 393 renal = test system: RXF 393 renal
NCI-H23 lung = test system: NCI-H23 lung
PC-3 prostate = test system: PC-3 prostate
HCC-2998 colon = test system: HCC-2998 colon
ACHN renal = test system: ACHN renal
UO-31 renal = test system: UO-31 renal
HS 578T breast = test system: HS 578T breast
CAKI-1 renal = test system: CAKI-1 renal
BT-549 breast = test system: BT-549 breast
SF-295 CNS = test system: SF-295 CNS
TK-10 renal = test system: TK-10 renal
EKVX NSCLC = test system: EKVX NSCLC
OVCAR-4 ovarian = test system: OVCAR-4 ovarian
SK-MEL-2 melanoma = test system: SK-MEL-2 melanoma
MCF7 breast = test system: MCF7 breast
OVCAR-5 ovarian = test system: OVCAR-5 ovarian
OVCAR-3 ovarian = test system: OVCAR-3 ovarian
HT29 colon = test system: HT29 colon
SW-620 colon = test system: SW-620 colon
SK-MEL-5 melanoma = test system: SK-MEL-5 melanoma
LOX IMVI melanoma = test system: LOX IMVI melanoma
HCT-15 colon = test system: HCT-15 colon
MALME-3M melanoma = test system: MALME-3M melanoma
HCT-116 colon = test system: HCT-116 colon
HL-60(TB) leukemia = test system: HL-60(TB) leukemia
IGROV1 ovarian = test system: IGROV1 ovarian

Q: With `COc1ccc(NC(=O)Nc2ccccc2CNc2nc(Nc3ccc(OCCN4CCCC4)cc3)ncc2Cl)cc1` as the compound, how does the GI50 (UACC-62 melanoma) read?
A: The GI50 was 869 nM.

Q: What about the TGI (UACC-62 melanoma) of the same compound?
A: Its TGI is 1630 nM.

Q: What about the GI50 (786-0 renal) of the same compound?
A: The GI50 was 882 nM.

Q: What about the TGI (786-0 renal) of the same compound?
A: Its TGI is 1640 nM.

Q: What about the GI50 (NCI-H522 lung) of the same compound?
A: Its GI50 is 1040 nM.

Q: What about the TGI (NCI-H522 lung) of the same compound?
A: Its TGI is 2310 nM.

Q: And the GI50 (DU-145 prostate)?
A: Its GI50 is 1240 nM.

Q: What about the TGI (DU-145 prostate) of the same compound?
A: The TGI was 3420 nM.

Q: What about the GI50 (MDA-MB-435) of the same compound?
A: The GI50 was 874 nM.

Q: And the TGI (MDA-MB-435)?
A: Its TGI is 1610 nM.

Q: What about the GI50 (CCRF-CEM leukemia) of the same compound?
A: Its GI50 is 1680 nM.

Q: What about the TGI (CCRF-CEM leukemia) of the same compound?
A: The TGI was greater than 50000 nM.

Q: What about the GI50 (K-562 leukemia) of the same compound?
A: The GI50 was 1630 nM.

Q: What about the TGI (K-562 leukemia) of the same compound?
A: Its TGI is greater than 50000 nM.

Q: And the GI50 (UACC-257 melanoma)?
A: The GI50 was 926 nM.

Q: And the TGI (UACC-257 melanoma)?
A: Its TGI is 1730 nM.

Q: And the GI50 (MDA-MB-231 breast)?
A: The GI50 was 953 nM.

Q: And the TGI (MDA-MB-231 breast)?
A: The TGI was 1740 nM.

Q: What about the GI50 (RPMI-8226 leukemia) of the same compound?
A: Its GI50 is 1730 nM.

Q: What about the TGI (RPMI-8226 leukemia) of the same compound?
A: Its TGI is greater than 50000 nM.

Q: What about the GI50 (KM12 colon) of the same compound?
A: The GI50 was 947 nM.

Q: What about the TGI (KM12 colon) of the same compound?
A: The TGI was 1770 nM.

Q: And the GI50 (HOP-92 NSCLC)?
A: The GI50 was 877 nM.

Q: And the TGI (HOP-92 NSCLC)?
A: The TGI was 2370 nM.

Q: What about the GI50 (SF-539 CNS) of the same compound?
A: The GI50 was 825 nM.

Q: And the TGI (SF-539 CNS)?
A: The TGI was 1540 nM.

Q: What about the GI50 (M14 melanoma) of the same compound?
A: Its GI50 is 833 nM.

Q: What about the TGI (M14 melanoma) of the same compound?
A: Its TGI is 1640 nM.

Q: What about the GI50 (SNB-19 CNS) of the same compound?
A: Its GI50 is 2140 nM.

Q: And the TGI (SNB-19 CNS)?
A: Its TGI is 9200 nM.

Q: What about the GI50 (A498 renal) of the same compound?
A: The GI50 was 963 nM.

Q: What about the TGI (A498 renal) of the same compound?
A: Its TGI is 3270 nM.

Q: And the GI50 (T-47D breast)?
A: The GI50 was 1020 nM.

Q: And the TGI (T-47D breast)?
A: Its TGI is 2540 nM.

Q: What about the GI50 (NCI/ADR-RES ovarian) of the same compound?
A: Its GI50 is 1100 nM.

Q: And the TGI (NCI/ADR-RES ovarian)?
A: The TGI was 2640 nM.

Q: And the GI50 (SNB-75 CNS)?
A: Its GI50 is 755 nM.

Q: And the TGI (SNB-75 CNS)?
A: The TGI was 1450 nM.

Q: And the GI50 (SR leukemia)?
A: Its GI50 is 1540 nM.

Q: And the TGI (SR leukemia)?
A: Its TGI is greater than 50000 nM.

Q: And the GI50 (SK-MEL-28 melanoma)?
A: The GI50 was 870 nM.

Q: And the TGI (SK-MEL-28 melanoma)?
A: Its TGI is 1620 nM.

Q: What about the GI50 (RXF 393 renal) of the same compound?
A: The GI50 was 828 nM.

Q: What about the TGI (RXF 393 renal) of the same compound?
A: Its TGI is 1640 nM.

Q: And the GI50 (NCI-H23 lung)?
A: Its GI50 is 2010 nM.

Q: And the TGI (NCI-H23 lung)?
A: Its TGI is 8720 nM.

Q: What about the GI50 (PC-3 prostate) of the same compound?
A: Its GI50 is 1200 nM.

Q: And the TGI (PC-3 prostate)?
A: The TGI was 2960 nM.

Q: What about the GI50 (HCC-2998 colon) of the same compound?
A: The GI50 was 1010 nM.

Q: What about the TGI (HCC-2998 colon) of the same compound?
A: Its TGI is 2180 nM.

Q: And the GI50 (ACHN renal)?
A: The GI50 was 862 nM.

Q: What about the TGI (ACHN renal) of the same compound?
A: Its TGI is 1550 nM.

Q: And the GI50 (UO-31 renal)?
A: Its GI50 is 763 nM.

Q: And the TGI (UO-31 renal)?
A: Its TGI is 1440 nM.

Q: What about the GI50 (HS 578T breast) of the same compound?
A: The GI50 was 1010 nM.

Q: What about the TGI (HS 578T breast) of the same compound?
A: The TGI was 2380 nM.

Q: And the GI50 (CAKI-1 renal)?
A: The GI50 was 867 nM.

Q: What about the TGI (CAKI-1 renal) of the same compound?
A: Its TGI is 1610 nM.

Q: And the GI50 (BT-549 breast)?
A: The GI50 was 788 nM.

Q: What about the TGI (BT-549 breast) of the same compound?
A: Its TGI is 1540 nM.

Q: What about the GI50 (SF-295 CNS) of the same compound?
A: Its GI50 is 853 nM.

Q: And the TGI (SF-295 CNS)?
A: The TGI was 1600 nM.

Q: And the GI50 (TK-10 renal)?
A: Its GI50 is 990 nM.

Q: And the TGI (TK-10 renal)?
A: Its TGI is 1980 nM.

Q: What about the GI50 (EKVX NSCLC) of the same compound?
A: The GI50 was 2650 nM.

Q: What about the TGI (EKVX NSCLC) of the same compound?
A: The TGI was 9450 nM.

Q: What about the GI50 (OVCAR-4 ovarian) of the same compound?
A: Its GI50 is 879 nM.

Q: And the TGI (OVCAR-4 ovarian)?
A: The TGI was 1690 nM.

Q: And the GI50 (SK-MEL-2 melanoma)?
A: Its GI50 is 1120 nM.

Q: What about the TGI (SK-MEL-2 melanoma) of the same compound?
A: Its TGI is 2580 nM.

Q: And the GI50 (MCF7 breast)?
A: The GI50 was 926 nM.

Q: What about the TGI (MCF7 breast) of the same compound?
A: The TGI was 1780 nM.

Q: What about the GI50 (OVCAR-5 ovarian) of the same compound?
A: The GI50 was 1020 nM.

Q: And the TGI (OVCAR-5 ovarian)?
A: The TGI was 2080 nM.

Q: And the GI50 (OVCAR-3 ovarian)?
A: The GI50 was 923 nM.

Q: And the TGI (OVCAR-3 ovarian)?
A: The TGI was 1730 nM.

Q: And the GI50 (HT29 colon)?
A: The GI50 was 1100 nM.

Q: What about the TGI (HT29 colon) of the same compound?
A: The TGI was 2600 nM.

Q: And the GI50 (SW-620 colon)?
A: Its GI50 is 1050 nM.

Q: And the TGI (SW-620 colon)?
A: The TGI was 2500 nM.

Q: What about the GI50 (SK-MEL-5 melanoma) of the same compound?
A: Its GI50 is 849 nM.

Q: What about the TGI (SK-MEL-5 melanoma) of the same compound?
A: The TGI was 1550 nM.

Q: And the GI50 (LOX IMVI melanoma)?
A: The GI50 was 894 nM.

Q: And the TGI (LOX IMVI melanoma)?
A: The TGI was 1640 nM.

Q: And the GI50 (HCT-15 colon)?
A: The GI50 was 878 nM.

Q: What about the TGI (HCT-15 colon) of the same compound?
A: The TGI was 1760 nM.

Q: What about the GI50 (MALME-3M melanoma) of the same compound?
A: Its GI50 is 845 nM.

Q: What about the TGI (MALME-3M melanoma) of the same compound?
A: Its TGI is 1580 nM.

Q: What about the GI50 (HCT-116 colon) of the same compound?
A: Its GI50 is 902 nM.

Q: What about the TGI (HCT-116 colon) of the same compound?
A: Its TGI is 1750 nM.

Q: What about the GI50 (HL-60(TB) leukemia) of the same compound?
A: Its GI50 is 1150 nM.

Q: What about the TGI (HL-60(TB) leukemia) of the same compound?
A: The TGI was 2590 nM.

Q: What about the GI50 (IGROV1 ovarian) of the same compound?
A: The GI50 was 894 nM.

Q: And the TGI (IGROV1 ovarian)?
A: Its TGI is 1660 nM.
